Laboratory results from PMC3460372 (Organic letters, 2012).
Numbered stars: 1 amine (or outer) side, 2 acyl side, 3 side chain; on linkers, the order of the positions; unused ones are H or OH. Square brackets hold non-standard residues; d marks the D form. Peptide text beside a SMILES is read from it. * marks the point of attachment. Cinnamoyl(2-(1Z-pentenyl)) = CCC/C=C\c1ccccc1/C=C/C(=O)*; X1 = CN(/C(=C/c1ccc(O)cc1)C(=O)[*:2])[*:1]; aThr = C[C@H](O)[C@H](N)C(=O)O

Target: BmAsnRS (Brugia malayi asparaginyl-tRNA synthetase) (Brugia malayi, UniProt P10723)
Assay: nonradioactive pretransfer editing assay, malachite green phosphate detection
Assay type: biochemical

Chain of BmAsnRS (Brugia malayi asparaginyl-tRNA synthetase) (P10723 whole entry): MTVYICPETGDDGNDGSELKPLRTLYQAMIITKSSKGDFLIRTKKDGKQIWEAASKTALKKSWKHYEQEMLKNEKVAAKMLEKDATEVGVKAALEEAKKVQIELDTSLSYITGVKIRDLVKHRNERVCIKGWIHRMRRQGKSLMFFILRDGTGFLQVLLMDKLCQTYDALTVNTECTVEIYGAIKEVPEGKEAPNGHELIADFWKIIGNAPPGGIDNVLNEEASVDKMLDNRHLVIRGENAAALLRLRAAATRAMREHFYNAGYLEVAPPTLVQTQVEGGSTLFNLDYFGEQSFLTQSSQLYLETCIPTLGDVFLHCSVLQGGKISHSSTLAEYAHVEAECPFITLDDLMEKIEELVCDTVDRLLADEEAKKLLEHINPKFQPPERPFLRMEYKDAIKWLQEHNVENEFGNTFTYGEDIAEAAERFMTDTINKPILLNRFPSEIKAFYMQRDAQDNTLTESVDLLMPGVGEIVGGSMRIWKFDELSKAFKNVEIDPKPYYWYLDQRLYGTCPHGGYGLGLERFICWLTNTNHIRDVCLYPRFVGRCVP

Row | SMILES | IC50
1 | CCC/C=C\c1ccccc1/C=C/C(=O)N[C@H](C(=O)N(C)/C(=C/c1ccc(O)cc1)C(=O)N[C@@H](CC(C)C)C(=O)N[C@H](Cc1ccccc1)C(=O)N[C@H](C(=O)O)[C@H](C)O)[C@@H](C)O [compound 3, WS9326D] ({Cinnamoyl(2-(1Z-pentenyl))}-T[X1]L[dF][aThr]-OH) | ~50 µM
2 | CCC/C=C\c1ccccc1/C=C/C(=O)N[C@@H](CO)C(=O)N(C)/C(=C/c1ccc(O)cc1)C(=O)N[C@@H](CC(C)C)C(=O)N[C@H](Cc1ccccc1)C(=O)N[C@H](C(=O)O)[C@H](C)O [compound 4, WS9326E] ({Cinnamoyl(2-(1Z-pentenyl))}-S[X1]L[dF][aThr]-OH) | ~75 µM
